Reference: ChEMBL document CHEMBL1201862, “PubChem BioAssay data set” (2004)
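All cell lines were grown in 96-well plates and treated with compound for 48 hours. GI50 marks 50% less growth.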 Activity calls are given as the source filed them. Rule as the data show it: active = GI50 up to about 1.1 µM and inactive = higher. Non-standard residues stand in square brackets, D forms with d. Residues, ends and D or L forms follow the SMILES beside them. ξ: configuration not given here. *: point of attachment. ξF = NC(Cc1ccccc1)C(=O)O; Cbz = O=C(OCc1ccccc1)*

Columns and labels:
Test in all cases: NCI anticancer screen, dose series, 48 h
A498 = test system: A498
KM12 = test system: KM12
HL-60 = test system: HL-60
ACHN = test system: ACHN
OVCAR-5 = test system: OVCAR-5
IGROV-1 = test system: IGROV-1
BT-549 = test system: BT-549
HCT-116 = test system: HCT-116
MDA-MB-231 = test system: MDA-MB-231
K562 = test system: K562
SF-295 = test system: SF-295
NCI-H226 = test system: NCI-H226
MDA-MB-435 = test system: MDA-MB-435
MOLT-4 = test system: MOLT-4
U-251 = test system: U-251
A549 = test system: A549
SR = test system: SR
SNB-75 = test system: SNB-75
DU-145 = test system: DU-145
HCT-15 = test system: HCT-15
EKVX = test system: EKVX
UO-31 = test system: UO-31
SNB-19 = test system: SNB-19
HCC 2998 = test system: HCC 2998
SW-620 = test system: SW-620
NCI-H23 = test system: NCI-H23
SK-MEL-5 = test system: SK-MEL-5
MDA-N = test system: MDA-N
MCF7 = test system: MCF7
PC-3 = test system: PC-3
Malme-3M = test system: Malme-3M
COLO 205 = test system: COLO 205
786-0 = test system: 786-0
CCRF-CEM = test system: CCRF-CEM
OVCAR-8 = test system: OVCAR-8
T47D = test system: T47D
HT-29 = test system: HT-29
HOP-62 = test system: HOP-62
OVCAR-3 = test system: OVCAR-3
Hs-578T = test system: Hs-578T
SN12C = test system: SN12C
SK-OV-3 = test system: SK-OV-3
RPMI-8226 = test system: RPMI-8226
SF-268 = test system: SF-268
HOP-92 = test system: HOP-92
NCI-H460 = test system: NCI-H460
LOX IMVI = test system: LOX IMVI
NCI/ADR-RES = test system: NCI/ADR-RES
M14 = test system: M14
CAKI-1 = test system: CAKI-1
SK-MEL-2 = test system: SK-MEL-2
OVCAR-4 = test system: OVCAR-4
SK-MEL-28 = test system: SK-MEL-28
NCI-H522 = test system: NCI-H522
UACC-62 = test system: UACC-62
UACC-257 = test system: UACC-257
SF-539 = test system: SF-539
TK-10 = test system: TK-10

CCOC(=O)CNC(=O)C(Cc1ccccc1)NC(=O)OCc1ccccc1 (stereo unspecified) (Cbz-[ξF]-Gly-OEt)
GI50 (A498): 53.8 µM (inactive)
GI50 (KM12): > 100 µM (inactive)
GI50 (HL-60): > 100 µM (inactive)
GI50 (ACHN): > 100 µM (inactive)
GI50 (OVCAR-5): > 100 µM (inactive)
GI50 (IGROV-1): > 100 µM (inactive)
GI50 (BT-549): > 100 µM (inactive)
GI50 (HCT-116): > 100 µM (inactive)
GI50 (MDA-MB-231): > 100 µM (inactive)
GI50 (K562): > 100 µM (inactive)
GI50 (SF-295): > 100 µM (inactive)
GI50 (NCI-H226): > 100 µM (inactive)
GI50 (MDA-MB-435): > 100 µM (inactive)
GI50 (MOLT-4): > 100 µM (inactive)
GI50 (U-251): > 100 µM (inactive)
GI50 (A549): > 100 µM (inactive)
GI50 (SR): > 100 µM (inactive)
GI50 (SNB-75): > 100 µM (inactive)
GI50 (DU-145): > 100 µM (inactive)
GI50 (HCT-15): > 100 µM
GI50 (EKVX): > 100 µM (inactive)
GI50 (UO-31): > 100 µM (inactive)
GI50 (SNB-19): > 100 µM (inactive)
GI50 (HCC 2998): > 100 µM (inactive)
GI50 (SW-620): > 100 µM (inactive)
GI50 (NCI-H23): > 100 µM (inactive)
GI50 (SK-MEL-5): > 100 µM (inactive)
GI50 (MDA-N): > 100 µM (inactive)
GI50 (MCF7): > 100 µM (inactive)
GI50 (PC-3): > 100 µM (inactive)
GI50 (Malme-3M): 86.3 µM (inactive)
GI50 (COLO 205): > 100 µM (inactive)
GI50 (786-0): > 100 µM (inactive)
GI50 (CCRF-CEM): > 100 µM (inactive)
GI50 (OVCAR-8): > 100 µM (inactive)
GI50 (T47D): 71.9 µM (inactive)
GI50 (HT-29): > 100 µM (inactive)
GI50 (HOP-62): > 100 µM (inactive)
GI50 (OVCAR-3): > 100 µM (inactive)
GI50 (Hs-578T): 70.8 µM (inactive)
GI50 (SN12C): > 100 µM (inactive)
GI50 (SK-OV-3): > 100 µM (inactive)
GI50 (RPMI-8226): > 100 µM (inactive)
GI50 (SF-268): > 100 µM (inactive)
GI50 (HOP-92): > 100 µM (inactive)
GI50 (NCI-H460): > 100 µM (inactive)
GI50 (LOX IMVI): > 100 µM (inactive)
GI50 (NCI/ADR-RES): > 100 µM (inactive)
GI50 (M14): > 100 µM (inactive)

O=C(C=P(c1ccccc1)(c1ccccc1)c1ccccc1)C12CC3CC(CC(C3)C1)C2
GI50 (A498): 18.8 µM (inactive)
GI50 (KM12): 15 µM (inactive)
GI50 (HL-60): 8.75 µM (inactive)
GI50 (ACHN): 16.2 µM (inactive)
GI50 (OVCAR-5): 17.1 µM (inactive)
GI50 (IGROV-1): 16 µM (inactive)
GI50 (BT-549): 18.2 µM (inactive)
GI50 (HCT-116): 13.2 µM (inactive)
GI50 (CAKI-1): 16.1 µM (inactive)
GI50 (MDA-MB-231): 15.7 µM (inactive)
GI50 (K562): < 0.01 µM (active)
GI50 (MDA-MB-435): 12.9 µM (inactive)
GI50 (SK-MEL-2): 15.8 µM (inactive)
GI50 (U-251): 17.7 µM (inactive)
GI50 (A549): 16.7 µM (inactive)
GI50 (OVCAR-4): 18.7 µM (inactive)
GI50 (SR): 55 µM (inactive)
GI50 (SNB-75): 16.9 µM (inactive)
GI50 (DU-145): 19.1 µM (inactive)
GI50 (HCT-15): 13.4 µM
GI50 (SK-MEL-28): 16.8 µM (inactive)
GI50 (EKVX): 15.6 µM (inactive)
GI50 (UO-31): 14.6 µM (inactive)
GI50 (SNB-19): 12.6 µM (inactive)
GI50 (HCC 2998): 16.8 µM (inactive)
GI50 (NCI-H522): 6.55 µM (inactive)
GI50 (SW-620): 16.1 µM (inactive)
GI50 (NCI-H23): 16.7 µM (inactive)
GI50 (SK-MEL-5): 14.8 µM (inactive)
GI50 (UACC-62): 14.7 µM (inactive)
GI50 (MDA-N): 14.3 µM (inactive)
GI50 (MCF7): 17 µM (inactive)
GI50 (PC-3): 11.7 µM (inactive)
GI50 (Malme-3M): 19.2 µM (inactive)
GI50 (COLO 205): 11.9 µM (inactive)
GI50 (UACC-257): 17.2 µM (inactive)
GI50 (786-0): 17.3 µM (inactive)
GI50 (CCRF-CEM): 14.4 µM (inactive)
GI50 (OVCAR-8): 17.7 µM (inactive)
GI50 (T47D): 16.1 µM (inactive)
GI50 (HT-29): 11.2 µM (inactive)
GI50 (HOP-62): 17.2 µM (inactive)
GI50 (SF-539): 20 µM (inactive)
GI50 (OVCAR-3): 14.9 µM (inactive)
GI50 (TK-10): 11.8 µM (inactive)
GI50 (Hs-578T): 16.5 µM (inactive)
GI50 (SN12C): 15.9 µM (inactive)
GI50 (RPMI-8226): 4.06 µM (inactive)
GI50 (SF-268): 20.8 µM (inactive)
GI50 (HOP-92): 20.5 µM (inactive)
GI50 (NCI-H460): 16.4 µM (inactive)
GI50 (LOX IMVI): 16.4 µM (inactive)
GI50 (NCI/ADR-RES): 16.5 µM (inactive)
GI50 (M14): 16 µM (inactive)

O=C1c2ccccc2-c2c1c1ccccc1c(=O)n2Cc1ccco1
GI50 (A498): > 100 µM (inactive)
GI50 (KM12): > 100 µM (inactive)
GI50 (HL-60): > 100 µM (inactive)
GI50 (OVCAR-5): > 100 µM (inactive)
GI50 (IGROV-1): > 100 µM (inactive)
GI50 (BT-549): > 100 µM (inactive)
GI50 (HCT-116): > 100 µM (inactive)
GI50 (CAKI-1): > 100 µM (inactive)
GI50 (MDA-MB-231): > 100 µM (inactive)
GI50 (K562): > 100 µM (inactive)
GI50 (SF-295): > 100 µM (inactive)
GI50 (NCI-H226): > 100 µM (inactive)
GI50 (MDA-MB-435): > 100 µM (inactive)
GI50 (MOLT-4): > 100 µM (inactive)
GI50 (SK-MEL-2): > 100 µM (inactive)
GI50 (U-251): > 100 µM (inactive)
GI50 (A549): > 100 µM (inactive)
GI50 (SR): > 100 µM (inactive)
GI50 (SNB-75): 48.6 µM (inactive)
GI50 (DU-145): > 100 µM (inactive)
GI50 (HCT-15): > 100 µM
GI50 (SK-MEL-28): > 100 µM (inactive)
GI50 (EKVX): > 100 µM (inactive)
GI50 (UO-31): > 100 µM (inactive)
GI50 (NCI-H522): > 100 µM (inactive)
GI50 (SW-620): > 100 µM (inactive)
GI50 (NCI-H23): > 100 µM (inactive)
GI50 (SK-MEL-5): > 100 µM (inactive)
GI50 (UACC-62): > 100 µM (inactive)
GI50 (MDA-N): > 100 µM (inactive)
GI50 (MCF7): > 100 µM (inactive)
GI50 (PC-3): > 100 µM (inactive)
GI50 (Malme-3M): > 100 µM (inactive)
GI50 (COLO 205): > 100 µM (inactive)
GI50 (UACC-257): > 100 µM (inactive)
GI50 (786-0): > 100 µM (inactive)
GI50 (CCRF-CEM): > 100 µM (inactive)
GI50 (OVCAR-8): > 100 µM (inactive)
GI50 (T47D): > 100 µM (inactive)
GI50 (HT-29): > 100 µM (inactive)
GI50 (HOP-62): 47.1 µM (inactive)
GI50 (SF-539): 39.6 µM (inactive)
GI50 (OVCAR-3): > 100 µM (inactive)
GI50 (TK-10): > 100 µM (inactive)
GI50 (Hs-578T): 54.6 µM (inactive)
GI50 (SN12C): > 100 µM (inactive)
GI50 (SK-OV-3): > 100 µM (inactive)
GI50 (RPMI-8226): > 100 µM (inactive)
GI50 (SF-268): > 100 µM (inactive)
GI50 (HOP-92): > 100 µM (inactive)
GI50 (LOX IMVI): > 100 µM (inactive)
GI50 (NCI/ADR-RES): > 100 µM (inactive)
GI50 (M14): > 100 µM (inactive)
